Source: patent US6358885B1, “Substituted phenylheterocyclic herbicides” (Mississippi State University, priority 1992, dated 2002)

Experiments:
chickweed [1] = experiment: Test B preemergence/postemergence greenhouse plant response rating 0 to 10; type: in vivo, Stellaria media; conditions: PREEMERGENCE
Outline: (§1)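 Test chemicals, dissolved in a non-phytotoxic solvent, were applied to soil at planting and, at the same time, over foliage of seedlings at the one to four leaf stage.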

corn = experiment: as above; type: in vivo, Zea mays; conditions: for Plant response rating, Corn: 0 to 10 scale
Outline: as §1

crabgrass = experiment: as above; type: in vivo, Digitaria spp.; conditions: for Plant response rating, Crabgrass: 0 to 10 scale
Outline: as §1

morningglory [2] = experiment: as above; type: in vivo, Ipomoea hederacea; conditions: for Plant response rating, Morningglory: 0 to 10 scale
Outline: as §1

rape = experiment: as above; type: in vivo, Brassica napus; conditions: for Plant response rating, Rape: 0 to 10 scale
Outline: as §1

sorghum = experiment: as above; type: in vivo, Sorghum bicolor; conditions: for Plant response rating, Sorghum: 0 to 10 scale
Outline: as §1

soybean [3] = experiment: as above; type: in vivo, Glycine max; conditions: for Plant response rating, Soybean: 0 to 10 scale
Outline: as §1

wheat = experiment: as above; type: in vivo, Triticum aestivum; conditions: for Plant response rating, Wheat: 0 to 10 scale
Outline: as §1

wild oat = experiment: as above; type: in vivo, Avena fatua; conditions: for Plant response rating, Wild oat: 0 to 10 scale
Outline: as §1

purple nutsedge = experiment: as above; type: in vivo, Cyperus rotundus; conditions: for Plant response rating, Nutsedge: 0 to 10 scale
Outline: as §1

barley = experiment: Test C preemergence/postemergence greenhouse plant response rating 0 to 100; type: in vivo, Hordeum vulgare; conditions: for Plant response rating Barley Igri: 0 to 100 scale
Outline: (§2)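 Compounds in non-phytotoxic solvent went onto sandy loam before emergence (seeded one day earlier) or onto plants at the one-to-four leaf stage. Duck salad was treated via flood water (~2.5 cm, maintained) over silt loam.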

bedstraw = experiment: as above; type: in vivo, Galium aparine; conditions: for Plant response rating, Bedstraw: 0 to 100 scale
Outline: as §2

chickweed [4] = experiment: as above; type: in vivo, Stellaria media; conditions: for Plant response rating, Chickweed: 0 to 100 scale
Outline: as §2

downy brome = experiment: as above; type: in vivo, Bromus tectorum; conditions: for Plant response rating Downy Brome: 0 to 100 scale
Outline: as §2

morningglory [5] = experiment: as above; type: in vivo, Ipomoea hederacea; conditions: for Plant response rating, Morningglory: 0 to 100 scale
Outline: as §2

soybean [6] = experiment: as above; type: in vivo, Glycine max; conditions: for Plant response rating, Soybean: 0 to 100 scale
Outline: as §2

wild buckwheat = experiment: as above; type: in vivo, Polygonum convolvulus; conditions: for Plant response rating, Wild buckwheat: 0 to 100 scale
Outline: as §2

umbrella sedge = experiment: Test C flood test plant response rating 0 to 100; type: in vivo, Cyperus difformis; conditions: for Plant response rating Umbrella sedge: flood test species listed under POSTEMERGENCE, 0 to 100 scale
Outline: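 Compounds in non-phytotoxic solvent applied preemergence to sandy loam one day after planting, postemergence at the 1–4 leaf stage, or to ~2.5 cm floodwater over silt loam.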

Structure (SMILES): C#CC(C)Oc1cc(-c2nn3c(c2Br)CCCC3)c(F)cc1Cl (stereo not drawn) [Compound 66]
- Plant response rating, Chickweed (chickweed [1]; Rate 50 g/ha, 0 to 10 scale): 4
- Plant response rating (0 to 10 scale), Chickweed (chickweed [1]; Rate 200 g/ha): 5
- Plant response rating, Corn (corn; POSTEMERGENCE, Rate 50 g/ha): 3
- Plant response rating, Corn (corn; PREEMERGENCE, Rate 50 g/ha): 0
- Plant response rating (0 to 10 scale), Corn (corn; PREEMERGENCE, Rate 200 g/ha): 0
- Plant response rating, Corn (corn; Rate 200 g/ha, POSTEMERGENCE): 3
- Plant response rating, Crabgrass (crabgrass; POSTEMERGENCE, Rate 50 g/ha): 4
- Plant response rating, Crabgrass (crabgrass; PREEMERGENCE, Rate 50 g/ha): 0
- Plant response rating (0 to 10 scale), Crabgrass (crabgrass; PREEMERGENCE, Rate 200 g/ha): 3
- Plant response rating, Crabgrass (crabgrass; Rate 200 g/ha, POSTEMERGENCE): 5
- Plant response rating, Morningglory (morningglory [2]; POSTEMERGENCE, Rate 50 g/ha): 10
- Plant response rating, Morningglory (morningglory [2]; PREEMERGENCE, Rate 50 g/ha): 0
- Plant response rating (0 to 10 scale), Morningglory (morningglory [2]; PREEMERGENCE, Rate 200 g/ha): 2
- Plant response rating, Morningglory (morningglory [2]; Rate 200 g/ha, POSTEMERGENCE): 10
- Plant response rating, Rape (rape; POSTEMERGENCE, Rate 50 g/ha): 10
- Plant response rating, Rape (rape; PREEMERGENCE, Rate 50 g/ha): 1
- Plant response rating (0 to 10 scale), Rape (rape; PREEMERGENCE, Rate 200 g/ha): 5
- Plant response rating, Rape (rape; Rate 200 g/ha, POSTEMERGENCE): 10
- Plant response rating, Sorghum (sorghum; POSTEMERGENCE, Rate 50 g/ha): 5
- Plant response rating, Sorghum (sorghum; PREEMERGENCE, Rate 50 g/ha): 0
- Plant response rating (0 to 10 scale), Sorghum (sorghum; PREEMERGENCE, Rate 200 g/ha): 0
- Plant response rating, Sorghum (sorghum; Rate 200 g/ha, POSTEMERGENCE): 7
- Plant response rating, Soybean (soybean [3]; POSTEMERGENCE, Rate 50 g/ha): 6
- Plant response rating, Soybean (soybean [3]; PREEMERGENCE, Rate 50 g/ha): 0
- Plant response rating (0 to 10 scale), Soybean (soybean [3]; PREEMERGENCE, Rate 200 g/ha): 0
- Plant response rating, Soybean (soybean [3]; Rate 200 g/ha, POSTEMERGENCE): 8
- Plant response rating, Wheat (wheat; POSTEMERGENCE, Rate 50 g/ha): 5
- Plant response rating, Wheat (wheat; PREEMERGENCE, Rate 50 g/ha): 0
- Plant response rating (0 to 10 scale), Wheat (wheat; PREEMERGENCE, Rate 200 g/ha): 3
- Plant response rating, Wheat (wheat; Rate 200 g/ha, POSTEMERGENCE): 5
- Plant response rating, Wild oat (wild oat; POSTEMERGENCE, Rate 50 g/ha): 5
- Plant response rating, Wild oat (wild oat; PREEMERGENCE, Rate 50 g/ha): 2
- Plant response rating (0 to 10 scale), Wild oat (wild oat; PREEMERGENCE, Rate 200 g/ha): 5
- Plant response rating, Wild oat (wild oat; Rate 200 g/ha, POSTEMERGENCE): 6
- Plant response rating, Nutsedge (purple nutsedge; POSTEMERGENCE, Rate 50 g/ha): 2
- Plant response rating, Nutsedge (purple nutsedge; PREEMERGENCE, Rate 50 g/ha): 0
- Plant response rating (0 to 10 scale), Nutsedge (purple nutsedge; PREEMERGENCE, Rate 200 g/ha): 0
- Plant response rating, Nutsedge (purple nutsedge; Rate 200 g/ha, POSTEMERGENCE): 2
- Plant response rating Barley Igri (barley; POSTEMERGENCE, 62 g/ha): 50
- Plant response rating Barley Igri (barley; POSTEMERGENCE, 250 g/ha): 60
- Plant response rating (0 to 100), Barley Igri (barley; POSTEMERGENCE, Rate 4 g/ha): 30
- Plant response rating Barley Igri (barley; PREEMERGENCE, 62 g/ha): 0
- Plant response rating Barley Igri (barley; PREEMERGENCE, 250 g/ha): 20
- Plant response rating (0 to 100), Barley Igri (barley; PREEMERGENCE, Rate 4 g/ha): 0
- Plant response rating (0 to 100), Barley Igri (barley; Rate 16 g/ha, POSTEMERGENCE): 30
- Plant response rating (0 to 100), Barley Igri (barley; Rate 16 g/ha, PREEMERGENCE): 0
- Plant response rating, Bedstraw (bedstraw; POSTEMERGENCE, 62 g/ha): 100
- Plant response rating, Bedstraw (bedstraw; POSTEMERGENCE, 250 g/ha): 100
- Plant response rating (0 to 100), Bedstraw (bedstraw; POSTEMERGENCE, Rate 4 g/ha): 60
- Plant response rating, Bedstraw (bedstraw; PREEMERGENCE, 62 g/ha): 80
- Plant response rating, Bedstraw (bedstraw; PREEMERGENCE, 250 g/ha): 90
- Plant response rating (0 to 100), Bedstraw (bedstraw; PREEMERGENCE, Rate 4 g/ha): 0
- Plant response rating (0 to 100), Bedstraw (bedstraw; Rate 16 g/ha, POSTEMERGENCE): 85
- Plant response rating (0 to 100), Bedstraw (bedstraw; Rate 16 g/ha, PREEMERGENCE): 20
- Plant response rating, Chickweed (chickweed [4]; POSTEMERGENCE, 62 g/ha): 95
- Plant response rating, Chickweed (chickweed [4]; POSTEMERGENCE, 250 g/ha): 100
- Plant response rating (0 to 100), Chickweed (chickweed [4]; POSTEMERGENCE, Rate 4 g/ha): 30
- Plant response rating, Chickweed (chickweed [4]; PREEMERGENCE, 62 g/ha): 50
- Plant response rating, Chickweed (chickweed [4]; PREEMERGENCE, 250 g/ha): 80
- Plant response rating (0 to 100), Chickweed (chickweed [4]; PREEMERGENCE, Rate 4 g/ha): 0
- Plant response rating (0 to 100), Chickweed (chickweed [4]; Rate 16 g/ha, POSTEMERGENCE): 70
- Plant response rating (0 to 100), Chickweed (chickweed [4]; Rate 16 g/ha, PREEMERGENCE): 0
- Plant response rating Downy Brome (downy brome; POSTEMERGENCE, 62 g/ha): 60
- Plant response rating Downy Brome (downy brome; POSTEMERGENCE, 250 g/ha): 80
- Plant response rating (0 to 100), Downy Brome (downy brome; POSTEMERGENCE, Rate 4 g/ha): 20
- Plant response rating Downy Brome (downy brome; PREEMERGENCE, 62 g/ha): 30
- Plant response rating Downy Brome (downy brome; PREEMERGENCE, 250 g/ha): 70
- Plant response rating (0 to 100), Downy Brome (downy brome; PREEMERGENCE, Rate 4 g/ha): 0
- Plant response rating (0 to 100), Downy Brome (downy brome; Rate 16 g/ha, POSTEMERGENCE): 40
- Plant response rating (0 to 100), Downy Brome (downy brome; Rate 16 g/ha, PREEMERGENCE): 0
- Plant response rating, Morningglory (morningglory [5]; POSTEMERGENCE, 62 g/ha): 85
- Plant response rating, Morningglory (morningglory [5]; POSTEMERGENCE, 250 g/ha): 100
- Plant response rating (0 to 100), Morningglory (morningglory [5]; POSTEMERGENCE, Rate 4 g/ha): 50
- Plant response rating, Morningglory (morningglory [5]; PREEMERGENCE, 62 g/ha): 10
- Plant response rating, Morningglory (morningglory [5]; PREEMERGENCE, 250 g/ha): 60
- Plant response rating (0 to 100), Morningglory (morningglory [5]; PREEMERGENCE, Rate 4 g/ha): 0
- Plant response rating (0 to 100), Morningglory (morningglory [5]; Rate 16 g/ha, POSTEMERGENCE): 50
- Plant response rating (0 to 100), Morningglory (morningglory [5]; Rate 16 g/ha, PREEMERGENCE): 0
- Plant response rating, Soybean (soybean [6]; POSTEMERGENCE, 62 g/ha): 60
- Plant response rating, Soybean (soybean [6]; POSTEMERGENCE, 250 g/ha): 70
- Plant response rating (0 to 100), Soybean (soybean [6]; POSTEMERGENCE, Rate 4 g/ha): 20
- Plant response rating, Soybean (soybean [6]; PREEMERGENCE, 250 g/ha): 20
- Plant response rating (0 to 100), Soybean (soybean [6]; PREEMERGENCE, Rate 4 g/ha): 0
- Plant response rating (0 to 100), Soybean (soybean [6]; Rate 16 g/ha, POSTEMERGENCE): 50
- Plant response rating (0 to 100), Soybean (soybean [6]; Rate 16 g/ha, PREEMERGENCE): 0
- Plant response rating, Wild buckwheat (wild buckwheat; POSTEMERGENCE, 62 g/ha): 100
- Plant response rating, Wild buckwheat (wild buckwheat; POSTEMERGENCE, 250 g/ha): 100
- Plant response rating (0 to 100), Wild buckwheat (wild buckwheat; POSTEMERGENCE, Rate 4 g/ha): 100
- Plant response rating, Wild buckwheat (wild buckwheat; PREEMERGENCE, 250 g/ha): 100
- Plant response rating (0 to 100), Wild buckwheat (wild buckwheat; PREEMERGENCE, Rate 4 g/ha): 0
- Plant response rating (0 to 100), Wild buckwheat (wild buckwheat; Rate 16 g/ha, POSTEMERGENCE): 100
- Plant response rating (0 to 100), Wild buckwheat (wild buckwheat; Rate 16 g/ha, PREEMERGENCE): 75
- Plant response rating (0 to 100), Umbrella sedge (umbrella sedge; POSTEMERGENCE section, flood test, Rate 4 g/ha): 0
- Plant response rating (0 to 100), Umbrella sedge (umbrella sedge; Rate 16 g/ha, under POSTEMERGENCE head (flood test species)): 0
- Plant response rating Umbrella sedge (umbrella sedge; 62 g/ha): 0
- Plant response rating Umbrella sedge (umbrella sedge; 250 g/ha): 80
